Measurements published in PubChem BioAssay (NCI).
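Exposure lasted 48 hours, with cells grown in 96-well plates and compounds tested at five concentrations. TGI: concentration producing complete growth inhibition.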

Columns and labels:
Assay in all cases: inhibition of tumour cell growth, NCI panel, 48 h
U251 CNS = test system: U251 CNS
UO-31 renal = test system: UO-31 renal
KM20L2 colon = test system: KM20L2 colon
LXFL 529 NSCLC = test system: LXFL 529 NSCLC
DMS 273 small cell lung = test system: DMS 273 small cell lung
HOP-18 NSCLC = test system: HOP-18 NSCLC
SNB-78 CNS = test system: SNB-78 CNS
DLD-1 colon = test system: DLD-1 colon
DMS 114 small cell lung = test system: DMS 114 small cell lung
M19-MEL melanoma = test system: M19-MEL melanoma
XF 498 CNS = test system: XF 498 CNS

## Cc1sc2nc3n(c(=O)c2c1C)N=C(c1ccc(Cl)cc1)CS3
U251 CNS
  TGI: > 100 µM
UO-31 renal
  TGI: > 100 µM

## O=C1CC2(CCC(O)(c3ccc(Cl)cc3)C(C(=O)c3ccc(Cl)cc3)C2)C(=O)c2ccccc2N1 (stereo not given)
U251 CNS
  TGI: > 31.9 µM
UO-31 renal
  TGI: 49.9 µM

## O=[N+]([O-])C(=C(N1CCOCC1)N1CCOCC1)/C(Cl)=C(\Cl)[N+](=O)[O-]
U251 CNS
  TGI: 37.8 µM
UO-31 renal
  TGI: 18 µM

## C=C[C@H]1CN2CCc3c([nH]c4c([C@H]5CCCN5C)c(O)ccc34)[C@@H]2C[C@@H]1C[C@H]1c2[nH]c3ccccc3c2CCN1C
U251 CNS
  TGI: 2.92 µM
UO-31 renal
  TGI: 3.24 µM

## CCOC(=O)CC[C@@H](NC(=O)c1ccc(N[C@@H]2c3cc4c(cc3C(c3cc(OC)c(O)c(OC)c3)C3C(=O)OC[C@@H]32)OCO4)cc1)C(=O)OCC (stereo not given in full)
KM20L2 colon
  TGI: 0.272 µM
LXFL 529 NSCLC
  TGI: > 10 µM
DMS 273 small cell lung
  TGI: 0.114 µM
HOP-18 NSCLC
  TGI: > 10 µM
SNB-78 CNS
  TGI: > 10 µM
DLD-1 colon
  TGI: 0.406 µM
U251 CNS
  TGI: 0.123 µM
UO-31 renal
  TGI: 0.194 µM

## COC(=N)C12C(N)=NC(OC)(OC)C1(C#N)C21C(=O)N(c2ccccc2)N=C1C (stereo not given)
U251 CNS
  TGI: > 100 µM
UO-31 renal
  TGI: > 100 µM

## COC(=O)CC1C(=O)OCc2c1cc1n(c2=O)Cc2c-1nc1ccccc1c2OC (stereo not given)
KM20L2 colon
  TGI: > 100 µM
LXFL 529 NSCLC
  TGI: > 100 µM
DMS 273 small cell lung
  TGI: > 100 µM
DMS 114 small cell lung
  TGI: > 100 µM
M19-MEL melanoma
  TGI: > 100 µM
HOP-18 NSCLC
  TGI: > 100 µM
XF 498 CNS
  TGI: > 100 µM
U251 CNS
  TGI: > 100 µM
UO-31 renal
  TGI: > 100 µM

## O=c1c2cccnc2nc2ccc3c[nH][nH]c3c12
U251 CNS
  TGI: > 10 µM

## CC(C)(C)N1NC1C1NN1C(C)(C)C (stereo not given)
U251 CNS
  TGI: > 100 µM
UO-31 renal
  TGI: > 100 µM

## [N-]=[N+]=Nc1ccc2c(c1)Sc1ccccc1N2CCCCCl
U251 CNS
  TGI: > 100 µM
UO-31 renal
  TGI: > 100 µM

## CCCNC(=S)/N=C\c1c(O)c2ccccc2oc1=O
U251 CNS
  TGI: > 100 µM
UO-31 renal
  TGI: > 100 µM

## CC1OC(O[C@H]2CC[C@]3(C)[C@H]4CC=C5[C@@H]6[C@@H](C)[C@H](C)CC[C@]6(C(=O)O)CC[C@@]5(C(=O)O)[C@]4(C)CC[C@H]3C2(C)C)C(O)C(O)C1O (stereo not given in full)
U251 CNS
  TGI: > 75 µM
UO-31 renal
  TGI: > 75 µM

## CN(C)CCNc1ccc2c(=O)n(CCN(C)C)c(=O)n3c4ccc(N)cc4c(=O)c1c23
U251 CNS
  TGI: 0.988 µM
UO-31 renal
  TGI: 0.346 µM

## CC1N(C)C(=O)OC12CCN(CCCC(=O)c1ccc(F)cc1)CC2 (stereo not given)
U251 CNS
  TGI: > 100 µM
UO-31 renal
  TGI: > 100 µM

## O=C1CCC2SC1CCC2=O
U251 CNS
  TGI: > 100 µM
UO-31 renal
  TGI: > 100 µM

## COC(=O)c1c(C(=O)OC)c2cc(C(=O)c3ccccc3)ccn2c1Cl
KM20L2 colon
  TGI: > 100 µM
LXFL 529 NSCLC
  TGI: > 100 µM
DMS 273 small cell lung
  TGI: 90.4 µM
DMS 114 small cell lung
  TGI: 89.1 µM
M19-MEL melanoma
  TGI: > 100 µM
SNB-78 CNS
  TGI: > 100 µM
XF 498 CNS
  TGI: 66.6 µM
U251 CNS
  TGI: > 100 µM
UO-31 renal
  TGI: 89.8 µM

## c1ccc(CCN(Cc2nc3ccccc3[nH]2)Cc2nc3ccccc3[nH]2)cc1
U251 CNS
  TGI: 19.8 µM
UO-31 renal
  TGI: 26.2 µM

## O=C(Nc1nc(C23CC4CC(CC(C4)C2)C3)cs1)c1cc2cc(Br)cc(Br)c2oc1=O
U251 CNS
  TGI: 41.5 µM
UO-31 renal
  TGI: > 100 µM

## CC1(C)C(=O)N=C(N)N1C(=O)OCc1ccccc1
U251 CNS
  TGI: > 100 µM
UO-31 renal
  TGI: > 100 µM

## NC1CC(=O)c2cc(Br)sc21 (stereo not given)
U251 CNS
  TGI: > 100 µM
UO-31 renal
  TGI: > 100 µM

## O=[N+]([O-])c1cccc2nccc(NCC(O)CO)c12 (stereo not given)
U251 CNS
  TGI: 32.6 µM
UO-31 renal
  TGI: 37.2 µM

## COc1cc2cc(C(=O)N3CC(CCl)c4ccc(NCCN)cc43)[nH]c2c(OC)c1OC (stereo not given)
UO-31 renal
  TGI: 0.382 µM

## CCOC(=O)c1ccc(C(=O)/C(C#N)=C2\CCCN2)[nH]1
U251 CNS
  TGI: > 100 µM
UO-31 renal
  TGI: > 100 µM

## CC(C)CCC[C@@H](C)C1CCC2[C@@H]3CCC4CC(CCC=C(c5cc(Cl)c(OC(=O)c6ccccc6)c(C(=O)O)c5)c5cc(Cl)c(OC(=O)c6ccccc6)c(C(=O)O)c5)CC[C@]4(C)C3CC[C@@]21C (stereo not given in full)
U251 CNS
  TGI: > 100 µM
UO-31 renal
  TGI: > 100 µM

## S=C(Nc1cccc(Cl)c1)Nc1ccccn1
U251 CNS
  TGI: > 100 µM
UO-31 renal
  TGI: > 100 µM

## COC(=O)C1(O)c2ccccc2N=C2C(=O)c3ccccc3N21 (stereo not given)
U251 CNS
  TGI: > 100 µM
UO-31 renal
  TGI: > 100 µM

## Cc1cc(Cl)ccc1N=NC(=O)NNc1ccc(Cl)cc1C
U251 CNS
  TGI: 31.4 µM
UO-31 renal
  TGI: 29.6 µM

## COC(=O)[C@H](Cc1ccccc1)NC(=O)N1CCN(C(=O)N[C@@H](Cc2ccccc2)C(=O)OC)CCN(C(=O)N[C@@H](Cc2ccccc2)C(=O)OC)CC1
U251 CNS
  TGI: > 100 µM
UO-31 renal
  TGI: > 100 µM

## Cc1ccccc1N(C)S(=O)(=O)c1ccccc1[N+](=O)[O-]
U251 CNS
  TGI: > 100 µM
UO-31 renal
  TGI: > 100 µM

## C=C(C)[C@@H]1CC[C@]2(C(=O)O)CC[C@]3(C)[C@H](CC[C@@H]4[C@@]5(C)CC[C@H](C(=O)/C=C/c6ccc(O)cc6)C(C)(C)[C@@H]5CC[C@]43C)[C@@H]12
U251 CNS
  TGI: > 100 µM
UO-31 renal
  TGI: 18.4 µM

## CSc1cc(Cl)c(C)cc1S(=O)(=O)NC(=O)NNc1ccc(F)c(Cl)c1
U251 CNS
  TGI: > 100 µM

## O=S1(=O)CCN(Cc2ccccc2)/C1=N\S(=O)(=O)c1ccc(Cl)cc1
U251 CNS
  TGI: 33.5 µM
UO-31 renal
  TGI: 32.5 µM

## C=C1C(=O)C23CC1C[C@H](OC(C)=O)C2C1(C)C(OC(C)=O)C[C@H](O)C(C)(C)[C@H]1C(O)[C@@H]3OC(C)=O (stereo not given in full)
U251 CNS
  TGI: 28.9 µM
UO-31 renal
  TGI: 31.2 µM

## CC1[C@@H](OCc2ccccc2)COC(=O)N1Cc1ccccc1 (stereo not given in full)
U251 CNS
  TGI: > 100 µM
UO-31 renal
  TGI: > 100 µM

## CCCCCCCCCCCCCCCCP(=O)(O)OP(=O)(O)OCC1OC(n2cnc3c(N)ncnc32)C(O)C1O (stereo not given)
U251 CNS
  TGI: 41.1 µM
UO-31 renal
  TGI: 30 µM

## CCOC(=O)c1c(NC(=O)Nc2ccccc2)c(C(N)=O)c2n1CCCCC2
U251 CNS
  TGI: > 100 µM
UO-31 renal
  TGI: > 100 µM

## CCC1(N=[N+]=[N-])C(=O)Nc2cc(C)ccc2C1=O (stereo not given)
KM20L2 colon
  TGI: > 100 µM
LXFL 529 NSCLC
  TGI: > 100 µM
DMS 273 small cell lung
  TGI: > 100 µM
DMS 114 small cell lung
  TGI: > 100 µM
M19-MEL melanoma
  TGI: > 100 µM
HOP-18 NSCLC
  TGI: > 100 µM
SNB-78 CNS
  TGI: > 100 µM
DLD-1 colon
  TGI: > 100 µM
U251 CNS
  TGI: > 100 µM
UO-31 renal
  TGI: > 100 µM

## CC1NC(/C(=C/c2ccccc2O)NC(=O)c2ccccc2)OC1=O (stereo not given)
U251 CNS
  TGI: > 50 µM
UO-31 renal
  TGI: > 50 µM

## CC(=O)c1ccc2c(c1)oc(=O)n2CCN1CCCCC1
U251 CNS
  TGI: > 100 µM

## O=C(c1ccncc1)n1nc(-c2ccccc2)c(N=Nc2ccc([N+](=O)[O-])cc2)c1-c1ccccc1
LXFL 529 NSCLC
  TGI: 25.7 µM
DMS 273 small cell lung
  TGI: > 100 µM
DMS 114 small cell lung
  TGI: > 100 µM
M19-MEL melanoma
  TGI: > 100 µM
SNB-78 CNS
  TGI: 28 µM
XF 498 CNS
  TGI: > 100 µM
DLD-1 colon
  TGI: > 100 µM
UO-31 renal
  TGI: 86.2 µM
